Experimental data: US8937072B2, “Substituted cyanoaniline compounds, preparation and use thereof” (Sinochem Corporation, priority 2011, dated 2015)

Experiments:
cucumber downy mildew = assay: Protectant activity in vivo (whole plant) against cucumber downy mildew
Description: (§1) The method is as followed: The whole plant is used in this test. The compound is dissolved in a proper solvent to get mother solution. The proper solvent is selected from acetone, methanol, DMF and so on according to their dissolving capability to the sample. The volume rate of solvent and testing solution (v/v) is equal to or less than 5%. The mother solution is diluted with water containing 0.1% tween-80 to get the testing solution whose concentration is designed. The testing solution is sprayed to the host plant by a special plant sprayer. The plant is inoculated with fungus after 24 hours. According to the infecting characteristic of fungus, the plant is stored in a humidity chamber and then transferred into greenhouse after infection is finished. And the other plants are placed in greenhouse directly. The activity of compound is obtained by eyeballing after 7 days in common.

corn rust = assay: Protectant activity in vivo (whole plant) against corn rust
Description: as §1

SMILES: COC(=O)c1ccc(Nc2c(Cl)c(Cl)c(C#N)c(C#N)c2Cl)cc1 [Compound A-11]
- protectant activity against cucumber downy mildew in vivo (cucumber downy mildew; dose 400 mg/L): 100%

SMILES: N#Cc1c(Cl)c(Cl)c(Nc2ccc([N+](=O)[O-])cc2F)c(Cl)c1C#N [Compound A-14]
- protectant activity against cucumber downy mildew in vivo (cucumber downy mildew; dose 25 mg/L): 100%
- protectant activity against cucumber downy mildew in vivo (cucumber downy mildew; dose 50 mg/L): 100%
- protectant activity against cucumber downy mildew in vivo (cucumber downy mildew; dose 100 mg/L): 100%
- protectant activity against cucumber downy mildew in vivo (cucumber downy mildew; dose 400 mg/L): 100%

SMILES: N#Cc1c(Cl)c(Cl)c(Nc2cc([N+](=O)[O-])ccc2Cl)c(Cl)c1C#N [Compound A-16]
- protectant activity against cucumber downy mildew in vivo (cucumber downy mildew; dose 400 mg/L): 100%

SMILES: N#Cc1c(Cl)c(Cl)c(Nc2ccc(C(F)(F)F)cc2Cl)c(Cl)c1C#N [Compound A-17]
- protectant activity against cucumber downy mildew in vivo (cucumber downy mildew; dose 400 mg/L): 100%

SMILES: N#Cc1ccc(Nc2c(Cl)c(Cl)c(C#N)c(C#N)c2Cl)cc1C(F)(F)F [Compound A-27]
- protectant activity against cucumber downy mildew in vivo (cucumber downy mildew; dose 400 mg/L): 100%

SMILES: N#Cc1c(Cl)c(Cl)c(Nc2ccc(F)c(F)c2F)c(Cl)c1C#N [Compound A-41]
- protectant activity against cucumber downy mildew in vivo (cucumber downy mildew; dose 400 mg/L): 100%

SMILES: N#Cc1c(Cl)c(Cl)c(Nc2c(Cl)cc([N+](=O)[O-])cc2Cl)c(Cl)c1C#N [Compound A-44]
- protectant activity against cucumber downy mildew in vivo (cucumber downy mildew; dose 100 mg/L): 100%
- protectant activity against cucumber downy mildew in vivo (cucumber downy mildew; dose 400 mg/L): 100%

SMILES: N#Cc1c(Cl)c(Cl)c(Nc2c(Br)cc([N+](=O)[O-])cc2Br)c(Cl)c1C#N [Compound A-45]
- protectant activity against cucumber downy mildew in vivo (cucumber downy mildew; dose 25 mg/L): 100%
- protectant activity against cucumber downy mildew in vivo (cucumber downy mildew; dose 50 mg/L): 100%
- protectant activity against cucumber downy mildew in vivo (cucumber downy mildew; dose 100 mg/L): 100%
- protectant activity against cucumber downy mildew in vivo (cucumber downy mildew; dose 400 mg/L): 100%

SMILES: Cc1c(Cl)c([N+](=O)[O-])cc([N+](=O)[O-])c1Nc1c(Cl)c(Cl)c(C#N)c(C#N)c1Cl [Compound A-61]
- protectant activity against cucumber downy mildew in vivo (cucumber downy mildew; dose 400 mg/L): 100%

SMILES: N#Cc1c(Cl)c(Cl)c(Nc2ccc(Br)cn2)c(Cl)c1C#N [Compound A-79]
- protectant activity against cucumber downy mildew in vivo (cucumber downy mildew; dose 100 mg/L): 100%
- protectant activity against cucumber downy mildew in vivo (cucumber downy mildew; dose 400 mg/L): 100%

SMILES: Cc1ccnc(Nc2c(Cl)c(Cl)c(C#N)c(C#N)c2Cl)c1 [Compound A-80]
- protectant activity against cucumber downy mildew in vivo (cucumber downy mildew; dose 100 mg/L): 100%
- protectant activity against cucumber downy mildew in vivo (cucumber downy mildew; dose 400 mg/L): 100%

SMILES: Cc1ccc(Nc2c(Cl)c(Cl)c(C#N)c(C#N)c2Cl)nc1 [Compound A-81]
- protectant activity against cucumber downy mildew in vivo (cucumber downy mildew; dose 400 mg/L): 100%

SMILES: Cc1ccccc1Nc1c(Cl)c(Cl)c(C#N)c(Cl)c1C#N [Compound B-1]
- protectant activity against corn rust in vivo (corn rust; dose 400 mg/L): 100%

SMILES: N#Cc1ccc(Nc2c(Cl)c(Cl)c(C#N)c(Cl)c2C#N)cc1 [Compound B-10]
- protectant activity against cucumber downy mildew in vivo (cucumber downy mildew; dose 400 mg/L): 100%

SMILES: N#Cc1c(Cl)c(Cl)c(Nc2ccc(OC(F)(F)F)cc2)c(C#N)c1Cl [Compound B-12]
- protectant activity against cucumber downy mildew in vivo (cucumber downy mildew; dose 400 mg/L): 100%

SMILES: COC(=O)c1ccc(Nc2c(Cl)c(Cl)c(C#N)c(Cl)c2C#N)cc1 [Compound B-13]
- protectant activity against cucumber downy mildew in vivo (cucumber downy mildew; dose 400 mg/L): 100%

SMILES: N#Cc1c(Cl)c(Cl)c(Nc2cccc(Cl)c2Cl)c(C#N)c1Cl [Compound B-16]
- protectant activity against cucumber downy mildew in vivo (cucumber downy mildew; dose 400 mg/L): 100%

SMILES: Cc1cc(Cl)ccc1Nc1c(Cl)c(Cl)c(C#N)c(Cl)c1C#N [Compound B-22]
- protectant activity against cucumber downy mildew in vivo (cucumber downy mildew; dose 400 mg/L): 100%

SMILES: Cc1cccc(Cl)c1Nc1c(Cl)c(Cl)c(C#N)c(Cl)c1C#N [Compound B-23]
- protectant activity against cucumber downy mildew in vivo (cucumber downy mildew; dose 400 mg/L): 100%

SMILES: N#Cc1c(Cl)c(Cl)c(Nc2ccc([N+](=O)[O-])cc2[N+](=O)[O-])c(C#N)c1Cl [Compound B-37]
- protectant activity against cucumber downy mildew in vivo (cucumber downy mildew; dose 400 mg/L): 100%

SMILES: N#Cc1ccc(Nc2c(Cl)c(Cl)c(C#N)c(Cl)c2C#N)cc1C(F)(F)F [Compound B-40]
- the protectant activity (%) against cucumber downy mildew (cucumber downy mildew; 12.5 mg/L): 30%
- the protectant activity (%) against cucumber downy mildew (cucumber downy mildew; 25 mg/L): 98%
- the protectant activity (%) against cucumber downy mildew (cucumber downy mildew; 50 mg/L): 100%
- the protectant activity (%) against cucumber downy mildew (cucumber downy mildew; 100 mg/L): 100%
- protectant activity against cucumber downy mildew in vivo (cucumber downy mildew; dose 50 mg/L): 100%
- protectant activity against cucumber downy mildew in vivo (cucumber downy mildew; dose 100 mg/L): 100%
- protectant activity against cucumber downy mildew in vivo (cucumber downy mildew; dose 400 mg/L): 100%

SMILES: N#Cc1c(Cl)c(Cl)c(Nc2c(Cl)cc([N+](=O)[O-])cc2Br)c(C#N)c1Cl [Compound B-55]
- the protectant activity (%) against corn rust (corn rust; 6.25 mg/L): 0%
- the protectant activity (%) against corn rust (corn rust; 25 mg/L): 25%
- the protectant activity (%) against corn rust (corn rust; 100 mg/L): 100%
- the protectant activity (%) against corn rust (corn rust; 400 mg/L): 100%
- protectant activity against corn rust in vivo (corn rust; dose 100 mg/L): 100%
- protectant activity against corn rust in vivo (corn rust; dose 400 mg/L): 100%

SMILES: CNC(=O)c1cc(Cl)cc(C)c1Nc1c(Cl)c(Cl)c(C#N)c(Cl)c1C#N [Compound B-62b]
- protectant activity against cucumber downy mildew in vivo (cucumber downy mildew; dose 400 mg/L): 100%

SMILES: CCN(CC)c1c(Cl)c(Nc2ccccc2[N+](=O)[O-])c(C#N)c(Cl)c1C#N [Compound B-70]
- protectant activity against corn rust in vivo (corn rust; dose 400 mg/L): 100%

SMILES: N#Cc1c(F)c(F)c(Nc2ccc([N+](=O)[O-])cc2Cl)c(C#N)c1F [Compound B-95]
- protectant activity against cucumber downy mildew in vivo (cucumber downy mildew; dose 400 mg/L): 100%

SMILES: N#Cc1c(F)c(F)c(Nc2c(Cl)cc([N+](=O)[O-])cc2Cl)c(C#N)c1F [Compound B-109]
- protectant activity against cucumber downy mildew in vivo (cucumber downy mildew; dose 50 mg/L): 100%
- protectant activity against cucumber downy mildew in vivo (cucumber downy mildew; dose 100 mg/L): 100%
- protectant activity against cucumber downy mildew in vivo (cucumber downy mildew; dose 400 mg/L): 100%
